Data set [1] has as its target LEDGF/p75-HIV-1 integrase interaction (Human immunodeficiency virus type 1 group M subtype B (isolate HXB2) (HIV-1), UniProt P04585). As to the kind of experiment: AlphaScreen assay of LEDGF-integrase interaction inhibition. The data set is classed as binding. The procedure:
Alphascreen Assay to Measure the LEDGF-Integrase Interaction Inhibitory Activity of Compounds of the Invention
The AlphaScreen assay was performed according to the manufacturer's protocol (Perkin Elmer, Benelux). Reactions were performed in 25 μl final volume in 384-well Optiwell™ microtiter plates (Perkin Elmer). The reaction buffer contained 25 mM Tris-HCl (pH 7.4), 150 mM NaCl, 1 mM MgCl2, 0.01% (v/v) Tween-20 and 0.1% (w/v) bovine serum albumin. His6-tagged integrase (300 nM final concentration) was incubated with the compounds for 30 min at 4° C. The compounds were added at varying concentrations spanning a wide range from 0.1 up to 100 μM. Afterwards 100 nM flag-LEDGF/p75 was added and incubation was prolonged for an additional hour at 4° C. Subsequently 5 μl of Ni-chelate-coated acceptor beads and 5 μl anti-flag donor beads were added to a final concentration of 20 μg/ml of both beads. Proteins and beads were incubated for 1 h at 30° C. in order to allow association to occur. Exposure of the reaction to direct light was omitted as much as possible and the emission of light from the acceptor beads was measured in the EnVision plate reader (Perkin Elmer, Benelux) and analyzed using the EnVision manager software. IN/DNA binding was analyzed in a similar setting using His6-tagged integrase (1 μM final concentration) and an oligodeoxynucleotide mimicking the IN ELISA oligonucleotide substrate (30 nM final concentration). Counterscreens with JPO2 or PogZ, respectively, were essentially performed as described previously.
His6-tagged HIV-1 integrase, 3xflag-tagged LEDGF/p75, MBP-JPO2 and MBP-PogZ were purified for AlphaScreen applications as described previously 23,25,56.

Data set [2] concerns HIV-1 (IIIB), HIV-1 (NL4.3). As to the kind of experiment: microbe, parasite or virus in culture. The settings on record: for EC50: Human immunodeficiency virus 1, IIIB, MT4, MT-4 cells, 50% protection against HIV-induced cytopathogenic effect, MTT; for SI: selectivity index, ratio of CC50 to EC50. The data set is classed as cell-based. The procedure:
(§1) A rapid and automated assay procedure was used for the in vitro evaluation of anti-HIV agents. An HTLV-1 transformed T4-cell line MT-4, which was previously shown to be highly susceptible to and permissive for HIV infection, served as the target cell line. Inhibition of the HIV-induced cytopathogenic effect was used as the end point. The viabitlity of both HIV- and mock-infected cells was assessed spectrophotometrically via in situ reduction of 3-(4,5-dimethylthiazol-2-yl)-2,5-diphenyltetrazolium bromide (MTT). The 50% cytotoxic concentration (CC50 in μM or μg/ml) was defined as the concentration of compound that reduced the absorbance of the mock-infected control sample by 50%. The percent protection achieved by the compound in HIV-infected cells was calculated by the following formula:
(§2) [formula] whereby (ODT)HIV is the optical density measured with a given concentration of the test compound in HIV-infected cells; (ODC)HIV is the optical density measured for the control untreated HIV-infected cells; (ODC)MOCK is the optical density measured for the control untreated mock-infected cells; all optical density values were determined at 540 nm. The dose achieving 50% protection according to the above formula was defined as the 50% inhibitory concentration (EC50 in μM or μg/ml). The ratio of CC50 to EC50 was defined as the selectivity index (SI). […] Examples of inhibition of cell proliferation by particular compounds of the invention can be found by looking at the respective CC50 values in the MT-4 cell line. Cells:
(§3) MT-4 cells (Miyoshi et al., 1982) were grown and maintained in RPMI 1640 medium supplemented with 10% heat-inactivated fetal calf serum, 2 mM I-glutamine, 0.1% sodium bicarbonate, and 20 μg of gentamicin per ml. Alternatively, the MT-4 cells may also be grown in RPMI 1640 medium supplemented with 10% FCS and 20 μg/ml of gentamicin (RPMI-complete).
The HIV-1 (IIIB) strain (Popovic et al., 1984) as well as the HIV-1 (NL4.3) strain (Adachi et al., J. Virol. 59, 284-291 (1986)) were used.

Data set [3] in a line: Cytotoxicity in mock-infected MT-4 cells (MTT). It counts as cell-based. The settings on record: human, 50% cytotoxic concentration. The procedure: as §1, §2, §3
Where [4] appears, read: His6-tagged integrase 300 nM, flag-LEDGF/p75 100 nM, read-out: Alphascreen IC50.

Read-outs that look alike come from different tables or passages of the source.

With `CCCC(C(=O)O)c1c(C)nc2sc(C)cc2c1-c1ccc(C)cc1` (stereo not shown) [Cpd 110, 2-(2,6-Dimethyl-4-p-tolylthieno[2,3-b]pyridin-5-yl)pentanoic acid], the IC50 in data set [1] (setting [4]) worked out at 4.31 µM. In data set [2], the midpoint of the response, the EC50, lay at 0.76 µM and the SI was found to be 95. In data set [3], this compound gave a CC50 of 72.2 µM.

Take `CCC(C)C(C(=O)O)c1c(C)nc2sc3c(c2c1-c1ccc(C)cc1)CCCC3` (stereo not shown) [Cpd 157, 2-[2-Methyl-4-(p-tolyl)-5,6,7,8-tetrahydro[1]benzothieno[2,3-b]pyridin-3-yl]-3-methylpentanoic acid]: the IC50 in data set [1] (setting [4]) was found to be 26.4 µM. Besides, the EC50 in data set [2] is > 35 µM. The CC50 in data set [3] was found to be 35 µM.

As to `CCCC(C(=O)O)c1c(C)nc2sc3c(c2c1-c1cccs1)CCC3` (stereo not shown) [Cpd 130, 2-[2-Methyl-4-(2-thienyl)-6,7-dihydro-5H-cyclopenta[4,5]thieno[2,3-b]pyridin-3-yl]pentanoic acid], the IC50 in data set [1] (setting [4]) amounted to 30.6 µM. Also, in data set [2], the EC50 worked out at 29.6 µM and the SI is reported as 4. This compound gave a CC50 in data set [3] of 130 µM.

As for `CCCC(C(=O)O)c1c(C)nc2sc3c(c2c1-c1ccc(Cl)cc1)CCC3` (stereo not shown) [Cpd 112, 2-[2-Methyl-4-(4-chlorophenyl)-6,7-dihydro-5H-cyclopenta[4,5]thieno[2,3-b]pyridin-3-yl]pentanoic acid], the IC50 in data set [1] (setting [4]) was 1.11 µM. In data set [2], a half-maximal response (EC50) required 0.803 µM and the SI came out at 84. Besides, in data set [3], the CC50 was found to be 67.7 µM.

`CCCC(C(=O)O)c1c(C)nc2sc3c(c2c1-c1ccc(Cl)cc1)CCCC3` (stereo not shown) [Cpd 148, 2-[2-Methyl-4-(4-chlorophenyl)-5,6,7,8-tetrahydro[1]benzothieno[2,3-b]pyridin-3-yl]pentanoic acid]: the IC50 in data set [1] (setting [4]) was determined as 2.19 µM. In data set [2], the EC50 was 0.53 µM and the SI came to 132. This compound returned a CC50 in data set [3] of 70 µM.

Regarding `CCCC(C(=O)O)c1c(C)nc2sc3c(c2c1-c1cccnc1)CCCC3` (stereo not shown) [Cpd 150, 2-[2-Methyl-4-(pyridin-3-yl)-5,6,7,8-tetrahydro[1]benzothieno[2,3-b]pyridin-3-yl]pentanoic acid], the IC50 in data set [1] (setting [4]) was found to be 1.37 µM. For the same compound, in data set [2], the EC50 was determined as 0.78 µM and the SI was found to be 49. For the same compound, the CC50 in data set [3] was 38.5 µM.

For the compound `CCCC(C(=O)O)c1c(C)nc2sc3c(c2c1-c1cccc(Cl)c1)CCCC3` (stereo not shown) [Cpd 138, 2-[2-Methyl-4-(3-chlorophenyl)-5,6,7,8-tetrahydro[1]benzothieno[2,3-b]pyridin-3-yl]pentanoic acid], the half-maximal inhibitory concentration (IC50) in data set [1] (setting [4]) was determined as 39.9 µM. In data set [2], the EC50 worked out at 43.3 µM and the SI was found to be 2. Half-maximal cytotoxicity in data set [3] (CC50) was put at 100 µM.

Regarding `CCOC(C(=O)O)c1c(C)nc2sc3c(c2c1-c1ccc(C)cc1)CCCC3` (stereo not shown) [Cpd 171, 2-[2-Methyl-4-p-tolyl-5,6,7,8-tetrahydro[1]benzothieno[2,3-b]pyridin-3-yl]-2-ethoxyacetic acid], in data set [1] (setting [4]), the IC50 was 1.21 µM. In data set [2], the EC50 is 0.112 µM and the SI worked out at 1166. For the same compound, the CC50 in data set [3] amounted to 130 µM.

For `Cc1ccc(-c2c(C(CC(C)(C)C)C(=O)O)c(C)nc3sc4c(c23)CCCC4)cc1` (stereo not shown) [Cpd 162, 2-[2-Methyl-4-(p-tolyl)-5,6,7,8-tetrahydro[1]benzothieno[2,3-b]pyridin-3-yl]-4,4-dimethylpentanoic acid], the IC50 in data set [1] (setting [4]) was determined as 1.57 µM. Further, in data set [2], a half-maximal effect (EC50) was put at 0.33 µM and the SI was found to be 217. For the same compound, in data set [3], the midpoint of cytotoxicity, the CC50, lay at 71.7 µM.

With `CCCC(C(=O)O)c1c(C)nc2sc3c(c2c1-c1ccc(C)cc1)CCC3C` (stereo not shown) [Cpd 128, 2-[2-methyl-7-methyl-4-p-tolyl-6,7-dihydro-5H-cyclopenta[4,5]thieno[2,3-b]pyridin-3-yl]pentanoic acid], in data set [1] (setting [4]), the IC50 worked out at 11.3 µM. Also, in data set [2], a half-maximal response (EC50) required 4.07 µM and the SI amounted to 30. The compound further gave a CC50 in data set [3] of 121 µM.

Take `CCCC(C(=O)O)c1c(C)nc2sccc2c1-c1ccc(C)cc1` (stereo not shown) [Cpd 119, 2-(6-Methyl-4-p-tolylthieno[2,3-b]pyridin-5-yl)pentanoic acid]: the IC50 in data set [1] (setting [4]) is 2.66 µM. In data set [2], the EC50 was determined as 31.6 µM and the SI amounted to 4. The same compound came in with a CC50 in data set [3] of 109 µM.

As for `CCCC(C(=O)O)c1c(C)nc2sc3c(c2c1-c1ccc(OC(F)(F)F)cc1)CCCC3` (stereo not shown) [Cpd 151, 2-[2-Methyl-4-(4-trifluoromethoxyphenyl)-5,6,7,8-tetrahydro[1]benzothieno[2,3-b]pyridin-3-yl]pentanoic acid], the IC50 in data set [1] (setting [4]) came to 21.5 µM. In data set [2], the 50% effective concentration (EC50) worked out at 8 µM and the SI is recorded as 6. In data set [3], the CC50 worked out at 48 µM.

Take `CCCC(C(=O)O)c1c(C)nc2sc(C)c(C)c2c1-c1ccc(C)cc1` (stereo not shown) [Cpd 108, 2-(2,3,6-Trimethyl-4-p-tolylthieno[2,3-b]pyridin-5-yl)pentanoic acid]: in data set [1] (setting [4]), the IC50 is 4.48 µM. Besides, in data set [2], the EC50 was determined as 2.19 µM and the SI stood at 27. The compound further had a CC50 in data set [3] of 57.9 µM.

As to `Cc1ccc(-c2c(CC(=O)O)c(C)nc3sc(C)cc23)cc1` [Cpd 106, (2,6-Dimethyl-4-p-tolylthieno[2,3-b]pyridin-5-yl)acetic acid], the IC50 in data set [1] (setting [4]) is 53.9 µM. Moreover, in data set [2], the concentration giving a half-maximal response (EC50) came to 96.4 µM and the SI was >1. Moreover, the CC50 in data set [3] is > 125 µM.

As to `CCCC(C(=O)O)c1c(C)nc2sc3c(c2c1-c1cc2ccccc2o1)CCCC3` (stereo not shown) [Cpd 154, 2-[2-Methyl-4-(benzofuran-2-yl)-5,6,7,8-tetrahydro[1]benzothieno[2,3-b]pyridin-3-yl]pentanoic acid], the 50% inhibitory concentration (IC50) in data set [1] (setting [4]) worked out at 8.12 µM. In data set [2], a half-maximal response (EC50) required 6.28 µM and the SI was 14. The half-maximal cytotoxic concentration (CC50) in data set [3] is 90.5 µM.

Regarding `CCCC(C(=O)O)c1c(C)nc2sc3c(c2c1-c1ccc(OC)cc1)CCC3` (stereo not shown) [Cpd 131, 2-[2-Methyl-4-(p-anisyl)-6,7-dihydro-5H-cyclopenta[4,5]thieno[2,3-b]pyridin-3-yl]pentanoic acid], the IC50 in data set [1] turned out to be 4.54 µM. Further, in data set [2], the midpoint of the response, the EC50, lay at 2.43 µM and the SI is recorded as 52. In addition, in data set [3], it took 127 µM to reach half-maximal cytotoxicity (CC50).

Turning to `CCCC(C(=O)O)c1c(C)nc2sc3c(c2c1-c1ccco1)CCC3` (stereo not shown) [Cpd 129, 2-[2-Methyl-4-(2-furyl)-6,7-dihydro-5H-cyclopenta[4,5]thieno[2,3-b]pyridin-3-yl]pentanoic acid], in data set [1] (setting [4]), the concentration for half-maximal inhibition (IC50) is 48 µM. Besides, in data set [2], the concentration for a half-maximal effect (EC50) is > 130 µM. Further, half-maximal cytotoxicity in data set [3] (CC50) was put at 130 µM.

On to `CCCC(C(N)=O)c1c(C)nc2sc3c(c2c1-c1ccc(C)cc1)CCCC3` (stereo not shown) [Cpd 167, 2-[2-Methyl-4-p-tolyl-5,6,7,8-tetrahydro[1]benzothieno[2,3-b]pyridin-3-yl]pentanamide], for which, in data set [1] (setting [4]), the IC50 was 63.7 µM. Moreover, the concentration for a half-maximal effect (EC50) in data set [2] was > 26.1 µM. Also, it took 26.1 µM to reach half-maximal cytotoxicity in data set [3] (CC50).

In the case of `Cc1ccc(-c2c(C(CCCC(F)(F)F)C(=O)O)c(C)nc3sc4c(c23)CCCC4)cc1` (stereo not shown) [Cpd 147, 2-[2-Methyl-4-(p-tolyl)-5,6,7,8-tetrahydro[1]benzothieno[2,3-b]pyridin-3-yl]-6,6,6-trifluorohexanoic acid], in data set [1] (setting [4]), the IC50 is 23.7 µM. Also, in data set [2], the EC50 was found to be 8.79 µM and the SI is 5. Also, in data set [3], the CC50 is 41.5 µM.

(Values after US8785638B2, “Thieno [2, 3-B] pyridine derivatives as viral replication inhibitors” (Katholieke Universiteit Leuven, priority 2009, dated 2014).)
